According to patent publication US20220184073A1, “USE OF A H3R INVERSE AGONIST FOR THE TREATMENT OF SHIFT WORK DISORDER” (Novartis AG, priority 2017, published 2022):
“Also recorded” adds a separate entry of the source.

Experiments:
[1] = test system: histamine in CSF; experiment: Histamine (HA) in CSF after single oral dose in healthy volunteers (LC-MS); format: in vivo, human; settings: for model adjusted geometric mean ratio to baseline of histamine in CSF: 100 mg single oral dose (free form); for Comparison of treatment vs placebo, Estimate (geometric ratio), histamine in CSF: 100 mg single oral dose vs placebo
Method: (§1) A randomized, double-blind, placebo-controlled, parallel group, exploratory study of single oral doses of Compound (I) (free form) was conducted in healthy volunteers (HVs) to investigate the pharmacodynamic effect of Compound (I) on the release of neurotransmitters in the brain. A total of 16 subjects were enrolled into the study, which was part of a first-in-human (FIH) study.
(§2) Subjects were randomized in a 1:1 ratio to receive either a single dose of Compound (I) or placebo.
(§3) On study Day 1 in the afternoon (approximately at 16:00), the HVs underwent lumbar puncture and a spinal catheter was placed for repeated cerebrospinal fluid (CSF) sampling. The spinal catheter was placed under strict surgical aseptic conditions, as per best practice standards, by a board certified anesthesiologist. Two CSF samples were collected before administration of the study drug (Compound (I) or placebo). Study drug was administered in the evening (approximately at 18:00). Thereafter, 10 more CSF samples were collected during 16 hrs following drug administration. The exact timing of sampling (0.5, 1, 1.5, 2, 3, 4, 6, 8, 12 and 16 hr post dose). During the same period, blood samples were also collected for pharmacokinetic (PK) analysis. The subjects remained at bed rest during the CSF sampling procedure and for about 24 hr afterwards. The following safety precautions were taken: (1) proper hydration of the subjects was ensured; (2) the catheter insertion site was assessed on a regular basis for early signs of local infection or CSF leakage; (3) prophylactic interventions/treatments to reduce the risk of venous thrombosis was considered by the Investigator.
(§4) The dose of Compound (I) (free form) administered to the subjects was 100 mg. Safety, tolerability and PK assessments were made up to 72 hr post dose. Subjects were allowed to leave the study center on Study Day 4 at the discretion of the Investigator, if there were no prohibitive safety findings. The subjects were asked to return to the study site for the study completion evaluation. Safety assessments included physical examinations, electrocardiograms (ECGs), vital signs, standard clinical laboratory evaluations (hematology, blood chemistry, and urinalysis), adverse events (AEs) and serious adverse events (SAEs) monitoring.
(§5) Biomarkers related to pharmacodynamic (PD) effect of Compound (I) (e.g. histamine [HA], tele-methylhistamine [tMeHA]) were measured in the CSF using LC-MS method.
LC-MS conditions for histamine (%=percent by volume): Acquity Binary Solvent Manager/Applied Biosystems API 5000; Mobile Phase A: acetonitrile, B: 10 mM ammonium formate pH3; Gradient: 10%A for 0.25 min, increase to 15%A within 0.25 min, increase to 25%A within 4 min, increase to 90%A within 0.10 min, 90%A for 0.9 min, back to 10%A within 0.10 min, 10%A for 2.40 min; Run time: 8 min; Flow rate: 0.35 mL/min; Analytical column: Acquity BEH C18, 150×2.1 mm, 1.7 μm; Temperature: 30° C. The desired compound histamine LC-MS: Rt=3.85 min, m/z 246 (M+H)^+
(§6) The effect of Compound (I) on CSF biomarkers was assessed using mixed models for repeated measures (MMRM). These parameters were log transformed and analyzed using a model including treatment and timepoint, the treatment*timepoint interaction term, and log transformed baseline as fixed effects. An unstructured residual covariance matrix within subjects was considered as desirable, but an alternative covariance structure (autoregressive) was used due to a lack of fit. The mean difference versus placebo (and its 90% CI) was calculated at each dose level. These were back-transformed to give a geometric ratio (and its 90% CI) between each dose and placebo.
Subjects: The study population comprised of male and female (of non-child bearing potential) healthy volunteers (HVs) 18-55 years of age. […] BMI=Body weight (kg)/[Height (m)]2. Subjects were able to communicate well with the Investigator, to understand and comply with the requirements of the study. […]

[2] = test system: tele-methylhistamine in CSF; experiment: tele-methylhistamine (tMeHA) in CSF after single oral dose in healthy volunteers (LC-MS); format: in vivo, human; settings: for model adjusted geometric mean ratio to baseline of tele-methylhistamine in CSF: 100 mg single oral dose (free form); for Comparison of treatment vs placebo, Estimate (geometric ratio), tele-methylhistamine in CSF: 100 mg single oral dose vs placebo
Method: as §1, §2, §3, §4, §5
LC-MS conditions for tele-methyl-histamine (%=percent by volume): Acquity Binary Solvent Manager/Applied Biosystems API 5000; Mobile Phase A: acetonitrile, B: 10 mM ammonium formate pH9; Gradient: 15%A for 0.25 min, increase to 25%A within 4.75 min, increase to 90%A within 0.10 min, 90%A for 0.50 min, back to 15%A within 0.10 min, 15%A for 0.60 min; Run time: 6.3 min; Flow rate: 0.65 mL/min; Analytical column: Acquity BEH C18, 150×2.1 mm, 1.7 μm; Temperature: 70° C. The desired compound tele-methyl-histamine LC-MS: Rt=4.66 min, m/z 260 (M+H)^+
Compound (I) can induce histamine release in a subject and thereby promote wakefulness. The tMeHA is the direct breakdown product of HA and can thus be used as a marker for HA release. In animals, the half-life of HA is about 20 minutes. Therefore HA is not an ideal mechanistic PD marker for Compound (I). due to its short half-life. […] Due to its slower breakdown, tMeHA was expected to be a more useful PD marker of Compound (I) activity than HA itself.
as §6, with “The mean difference versus placebo (and its 90% CI) was calculated at each dose level. These were back-transformed to give a geometric ratio (and its 90% CI) between each dose and placebo.” left out

[3] = SWD patients; N. Engl. J. Med., 2005, 353, 476-486; cited from earlier work
[4] = healthy volunteers, 0.5 hr post-dose
[5] = healthy volunteers, 1.0 hr post-dose
[6] = healthy volunteers, 1.5 hr post-dose
[7] = healthy volunteers, 2.0 hr post-dose
[8] = healthy volunteers, 3.0 hr post-dose
[9] = healthy volunteers, 4.0 hr post-dose
[10] = healthy volunteers, 6.0 hr post-dose
[11] = healthy volunteers, 8.0 hr post-dose
[12] = healthy volunteers, 12.0 hr post-dose
[13] = healthy volunteers, 16.0 hr post-dose

For `Cn1nc(N2CCC(OC(=O)N3CCN(C4CCC4)CC3)CC2)ccc1=O` [Compound (I), 1-(1-methyl-6-oxo-1,6-dihydropyridazin-3-yl)piperidin-4-yl 4-cyclobutylpiperazine-1-carboxylate], the “model adjusted geometric mean ratio to baseline of histamine in CSF” value ([1]; 0.5 hr post-dose) was 1.27, the “model adjusted geometric mean ratio to baseline of histamine in CSF” value ([1]; 1.0 hr post-dose) was 1.09 and the “model adjusted geometric mean ratio to baseline of histamine in CSF” value ([1]; 1.5 hr post-dose) was 0.95. The “model adjusted geometric mean ratio to baseline of histamine in CSF” value ([1]; 2.0 hr post-dose) was 1.02, the “model adjusted geometric mean ratio to baseline of histamine in CSF” value ([1]; 3.0 hr post-dose) was 1.01 and the “model adjusted geometric mean ratio to baseline of histamine in CSF” value ([1]; 4.0 hr post-dose) was 0.73. The “model adjusted geometric mean ratio to baseline of histamine in CSF” value ([1]; 6.0 hr post-dose) was 0.63, the “model adjusted geometric mean ratio to baseline of histamine in CSF” value ([1]; 8.0 hr post-dose) was 0.83 and the “model adjusted geometric mean ratio to baseline of histamine in CSF” value ([1]; 12.0 hr post-dose) was 0.84. For the same compound, the “model adjusted geometric mean ratio to baseline of histamine in CSF” value ([1]; 16.0 hr post-dose) was 0.92, the “Comparison of treatment vs placebo, Estimate (geometric ratio), histamine in CSF” value (shortened to “Comparison … (geometric ratio), histamine in CSF”) ([1]; 0.5 hr post-dose) was 1.16 and the “Comparison … (geometric ratio), histamine in CSF” value ([1]; 1.0 hr post-dose) was 0.96. The “Comparison … (geometric ratio), histamine in CSF” value ([1]; 1.5 hr post-dose) was 0.97, the “Comparison … (geometric ratio), histamine in CSF” value ([1]; 2.0 hr post-dose) was 0.99 and the “Comparison … (geometric ratio), histamine in CSF” value ([1]; 3.0 hr post-dose) was 1.15. For the same compound, the “Comparison … (geometric ratio), histamine in CSF” value ([1]; 4.0 hr post-dose) was 0.79, the “Comparison … (geometric ratio), histamine in CSF” value ([1]; 6.0 hr post-dose) was 0.64 and the “Comparison … (geometric ratio), histamine in CSF” value ([1]; 8.0 hr post-dose) was 1.14. For the same compound, the “Comparison … (geometric ratio), histamine in CSF” value ([1]; 12.0 hr post-dose) was 1.14, the “Comparison … (geometric ratio), histamine in CSF” value ([1]; 16.0 hr post-dose) was 0.82 and the “mean CSF HA levels, treatment vs placebo (in words)” value ([1]; free form, 100 mg, single dose, 16 hrs observation) was “No clear trend of a difference; also recorded: No treatment response was detected”. The “between group difference in CSF tMeHA (statistical significance)” value ([2]; at 1.5 hrs post dose and at all subsequent sampling points) was “statistically significant”, the “time for which mean CSF tMeHA level was increased compared to baseline” value ([2]; healthy volunteers, 100 mg single oral dose) was “about 10 hrs” and the “model adjusted geometric mean ratio to baseline of tele-methylhistamine in CSF” value [2, 4] was 1.01. The “model adjusted geometric mean ratio to baseline of tele-methylhistamine in CSF” value [2, 5] was 1.17, the “model adjusted geometric mean ratio to baseline of tele-methylhistamine in CSF” value [2, 6] was 1.30 and the “model adjusted geometric mean ratio to baseline of tele-methylhistamine in CSF” value [2, 7] was 1.73. The “model adjusted geometric mean ratio to baseline of tele-methylhistamine in CSF” value [2, 8] was 1.64, the “model adjusted geometric mean ratio to baseline of tele-methylhistamine in CSF” value [2, 9] was 1.21 and the “model adjusted geometric mean ratio to baseline of tele-methylhistamine in CSF” value [2, 10] was 1.59. For the same compound, the “model adjusted geometric mean ratio to baseline of tele-methylhistamine in CSF” value [2, 11] was 1.20, the “model adjusted geometric mean ratio to baseline of tele-methylhistamine in CSF” value [2, 12] was 0.79 and the “model adjusted geometric mean ratio to baseline of tele-methylhistamine in CSF” value [2, 13] was 1.04. For the same compound, the “Comparison of treatment vs placebo, Estimate (geometric ratio), tele-methylhistamine in CSF” value [2, 4] was 1.02, the “Comparison of treatment vs placebo, Estimate (geometric ratio), tele-methylhistamine in CSF” value [2, 5] was 1.10 and the “Comparison of treatment vs placebo, Estimate (geometric ratio), tele-methylhistamine in CSF” value [2, 6] was 1.39. The “Comparison of treatment vs placebo, Estimate (geometric ratio), tele-methylhistamine in CSF” value [2, 7] was 1.77, the “Comparison of treatment vs placebo, Estimate (geometric ratio), tele-methylhistamine in CSF” value [2, 8] was 1.88 and the “Comparison of treatment vs placebo, Estimate (geometric ratio), tele-methylhistamine in CSF” value [2, 9] was 1.63. The “Comparison of treatment vs placebo, Estimate (geometric ratio), tele-methylhistamine in CSF” value [2, 10] was 1.85, the “Comparison of treatment vs placebo, Estimate (geometric ratio), tele-methylhistamine in CSF” value [2, 11] was 2.14 and the “Comparison of treatment vs placebo, Estimate (geometric ratio), tele-methylhistamine in CSF” value [2, 12] was 2.45. For the same compound, the “Comparison of treatment vs placebo, Estimate (geometric ratio), tele-methylhistamine in CSF” value [2, 13] was 1.57 and the “mean tMeHA level in CSF / ratio to baseline, treatment vs placebo (in words)” value ([2]; healthy volunteers, 100 mg single oral dose, entire observation period) was “higher; also recorded: robust increase”.
For `NC(=O)C[S+]([O-])C(c1ccccc1)c1ccccc1` (stereo not drawn) [modafinil, 2-(benzhydrylsulfinyl)acetamide], the “mean sleep latency (MSLT)” value [3] is listed as “modest but statistically significant improvement”.
